Series [1] addresses T1, human mineralocorticoid receptor (hMR) ligand-binding domain (GAL4-hMR receptor) (Homo sapiens, UniProt P08235).
T1 construct: expressed in transfected cells; host or cells: HEK293
T1 sequence (P08235 726-964 limits assumed): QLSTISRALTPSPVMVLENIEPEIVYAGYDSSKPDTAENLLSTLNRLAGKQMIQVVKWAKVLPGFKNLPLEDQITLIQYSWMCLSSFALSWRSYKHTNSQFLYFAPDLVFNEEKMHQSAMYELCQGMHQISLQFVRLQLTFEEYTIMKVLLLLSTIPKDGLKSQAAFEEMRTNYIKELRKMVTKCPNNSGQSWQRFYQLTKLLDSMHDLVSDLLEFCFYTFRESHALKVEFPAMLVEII
As to the kind of experiment: GAL4-hMR luciferase reporter assay in HEK293 cells in the presence of 1 nM aldosterone (mineralocorticoid receptor antagonistic activity). It is filed as cell-based. Conditions: for pIC50: concentration giving Imax/2, HEK293, 1 nM aldosterone present, overnight incubation, read-out: ICmax50; for Imax: maximum value from the graph of relative luciferase activity, DMSO control = 0%, 1 nM aldosterone control = 100%. The source says: A plasmid pM-hMR-LBD which is obtained by ligation of a ligand-binding domain (LBD, corresponding to a region of about 308 amino acids at the carboxy terminus) of human mineralocorticoid receptor (hMR, NM_000901) to a DNA-binding domain (corresponding to a region of 147 amino acids at the amino terminus) of a yeast transcription factor GAL4 and expresses GAL4-hMR receptor was constructed. Using a reporter plasmid which has a sequence binding to the DNA-binding domain of GAL4 (UAS sequence) and contains a luciferase gene (such as pFR-Luc, a plasmid available from Stratagene Cloning Systems), a reporter assay was performed.
The previously obtained plasmid pM-hMR-LBD and the reporter plasmid were transfected into a human fetus-derived renal cell line HEK293 by the lipofection method. On the following day, the cells were treated with trypsin and collected. A white 96-well plate (manufactured by Costar, Inc.) was prepared, and the cells were dispensed into each well in an amount of 95 μL using a DMEM medium containing 5% FBS (fetal bovine serum) which had been treated with activated charcoal.
As for each test compound, solutions obtained by dissolving the test compound in dimethyl sulfoxide at predetermined concentrations were used, and the solutions were appropriately diluted with medium and added to the cells in the white 96-well plate to give a final concentration of 0.1%. When the test compound was added, 1 nM aldosterone was allowed to be present. A well group to which dimethyl sulfoxide was added was assigned Control 1 group; and a well group to which 1 nM aldosterone was added was assigned Control 2 group. After the addition, the plate was incubated overnight.
On the following day, the medium was removed, and a luciferase substrate (Wako Pure Chemical Industries, Ltd.) was prepared according to the package insert and added to each well in an amount of 50 μL, and then, the plate was stirred for about 30 minutes. The luminescence intensity of each well was measured using Analyst (manufactured by Molecular Devices Corporation) and taken as the luciferase activity. The luciferase activity value of Control 1 group was taken as 0%, the luciferase activity value of Control 2 group was taken as 100%, and relative luciferase activity values for the respective doses of the test compound in the test compound addition group were plotted to create a graph. From the graph, the maximum value was calculated as Imax (%), and the concentration of the test compound showing the value of Imax/2 was calculated as ICmax50 (M). In Table 1, ICmax50 values are shown.
On the technique in general: A reporter such as luciferase makes a cellular process visible.

A short description of series [2]: Plasma pharmacokinetics after oral administration to cynomolgus monkeys (LC-MS/MS). It is filed as in vivo. Conditions: male cynomolgus monkey, 3 mg/kg to the stomach in 0.5% MC, fasted; for Cmax: po, read-out: Cmax: Maximum concentration. How it is done:
Cynomolgus monkeys (male) were used, and the monkeys were fasted from one day before the test compound was administered. The administration sample was prepared by adding a 0.5% MC (methyl cellulose) solution to the test compound such that the dose was 3 mg/2 mL/kg. Each administration sample was administered to the stomach of the cynomolgus monkey using a tube. After the sample was administered, about 5 mL of water was administered. Each administration sample was administered to three cynomolgus monkeys in one group.
As for blood collection, about 1 mL of blood was collected from the femoral vein before administration, and […] 1, 2, 4, 6, 8, 24 and 48 hours after administration using an injection syringe treated with heparin. The collected blood was centrifuged (15,000×g, […], 4° C.) to obtain plasma. The obtained plasma was stored in a freezer (−20° C.) until pretreatment.
Preparation of Standard Solution and Internal Standard (IS) Solution: Each test compound was dissolved in acetonitrile, whereby a 1 mg/mL solution of each test compound was prepared. A standard solution was prepared by diluting each compound solution with acetonitrile. Further, sodium warfarin (Wako Pure Chemical Industries, Ltd.) was dissolved in acetonitrile to prepare a 500 ng/mL IS solution. Pretreatment of Plasma Sample: 50 μL of the plasma sample was taken out and 50 μL of acetonitrile was added thereto. For a calibration curve, 50 μL of each standard solution (acetonitrile solution) was added to 50 μL of the blank plasma. To all the samples, 150 μL of the IS acetonitrile solution was added, and the mixture was stirred, and then centrifuged (about 1,800×g, 30 min, 4° C.). After filtration was performed with Sirocco Protein Precipitation Plate (Waters Corporation), the filtrate was appropriately diluted with a mobile phase to prepare an LC-MS/MS analysis sample. Determination of Test Compound: The plasma concentration of each test compound was analyzed by the LC-MS/MS method. [HPLC Analysis Conditions]
Analysis: A pharmacokinetics parameter was calculated from the plasma concentration of each agent using WinNonlin Professional (Ver. 4.0.1, Pharsight Corporation). Incidentally, Noncompartment model was used as a model for calculation of the parameter.

Structures are written as SMILES. pIC50: −log10 of the molar value. Where only a bound is given, the exact number is not on record here.

This is an account of results in US8754118B2, “Atropisomer of pyrrole derivative” (Daiichi Sankyo Company, Limited, priority 2007, dated 2014).

On to `Cc1c(C(=O)Nc2ccc(S(C)(=O)=O)cc2)cn(C)c1-c1ccccc1C(F)(F)F` (single isomer, unassigned) [Isomer B, (+)-1,4-dimethyl-N-[4-(methylsulfonyl)phenyl]-5-[2-(trifluoromethyl)phenyl]-1H-pyrrole-3-carboxamide], for which, in series [1], the pIC50 is 8.59 and the Imax was 123%. For the same compound, in series [2], the “AUC: Area under the plasma concentration versus time curve (0-48 hr.)” value came out at 3446 ng·h/mL and the Cmax worked out at 184 ng/mL.

Consider `COc1ccc(-c2c(C)c(C(=O)Nc3ccc(S(C)(=O)=O)cc3)cn2CCO)c(C(F)(F)F)c1` (single isomer, unassigned) [Isomer F, (+)-1-(2-hydroxyethyl)-5-[4-methoxy-2-(trifluoromethyl)phenyl]-4-methyl-N-[4-(methylsulfonyl)phenyl]-1H-pyrrole-3-carboxamide], for which the pIC50 in series [1] was < 6.00.

Turning to `Cc1c(C(=O)Nc2ccc(S(C)(=O)=O)cc2)cn(C)c1-c1ccccc1C(F)(F)F` (single isomer, unassigned) [Isomer A, (−)-1,4-dimethyl-N-[4-(methylsulfonyl)phenyl]-5-[2-(trifluoromethyl)phenyl]-1H-pyrrole-3-carboxamide], the pIC50 in series [1] was < 6.00.

`COc1ccc(-c2c(C)c(C(=O)Nc3ccc(S(C)(=O)=O)cc3)cn2CCO)c(C(F)(F)F)c1` (single isomer, unassigned) [Isomer E, (−)-1-(2-hydroxyethyl)-5-[4-methoxy-2-(trifluoromethyl)phenyl]-4-methyl-N-[4-(methylsulfonyl)phenyl]-1H-pyrrole-3-carboxamide]: in series [1], the pIC50 is 8.74 and the Imax is on record as 115%. Further, in series [2], the “AUC: Area under the plasma concentration versus time curve (0-48 hr.)” value was found to be 7187 ng·h/mL and the Cmax was 681 ng/mL.

On to `COc1ccc(-c2c(C)c(C(=O)Nc3ccc(S(C)(=O)=O)cc3)cn2CCO)c(C(F)(F)F)c1` (racemic) [Example 5, (+/−)-1-(2-hydroxyethyl)-5-[4-methoxy-2-(trifluoromethyl)phenyl]-4-methyl-N-[4-(methylsulfonyl)phenyl]-1H-pyrrole-3-carboxamide], for which, in series [1], the pIC50 is 8.28 and the Imax came out at 97%. For the same compound, in series [2], the “AUC: Area under the plasma concentration versus time curve (0-48 hr.)” value was 33 ng·h/mL and the Cmax worked out at 2 ng/mL.

For the compound `Cc1c(C(=O)Nc2ccc(S(C)(=O)=O)cc2)cn(C)c1-c1ccccc1C(F)(F)F` (racemic) [Example 1, (+/−)-1,4-dimethyl-N-[4-(methylsulfonyl)phenyl]-5-[2-(trifluoromethyl)phenyl]-1H-pyrrole-3-carboxamide], in series [1], the pIC50 was 7.89 and the Imax is reported as 95%. In series [2], the “AUC: Area under the plasma concentration versus time curve (0-48 hr.)” value was found to be 860 ng·h/mL and the Cmax was determined as 42 ng/mL.

For the compound `Cc1c(C(=O)Nc2ccc(S(C)(=O)=O)cc2)cn(CCO)c1-c1ccccc1C(F)(F)F` (racemic) [Example 3, (+/−)-1-(2-hydroxyethyl)-4-methyl-N-[4-(methylsulfonyl)phenyl]-5-[2-(trifluoromethyl)phenyl]-1H-pyrrole-3-carboxamide], in series [1], the Imax was 105%. Also, in series [2], the “AUC: Area under the plasma concentration versus time curve (0-48 hr.)” value is 7667 ng·h/mL and the Cmax worked out at 380 ng/mL.

`Cc1c(C(=O)Nc2ccc(S(C)(=O)=O)cc2)cn(CCO)c1-c1ccccc1C(F)(F)F` (single isomer, unassigned) [Isomer C, (+)-1-(2-hydroxyethyl)-4-methyl-N-[4-(methylsulfonyl)phenyl]-5-[2-(trifluoromethyl)phenyl]-1H-pyrrole-3-carboxamide]: the pIC50 in series [1] was < 6.00.

For `Cc1c(C(=O)Nc2ccc(S(C)(=O)=O)cc2)cn(CCO)c1-c1ccccc1C(F)(F)F` (single isomer, unassigned) [Isomer D, (−)-1-(2-hydroxyethyl)-4-methyl-N-[4-(methylsulfonyl)phenyl]-5-[2-(trifluoromethyl)phenyl]-1H-pyrrole-3-carboxamide], in series [1], the pIC50 was 8.62 and the Imax amounted to 99%. Moreover, in series [2], the “AUC: Area under the plasma concentration versus time curve (0-48 hr.)” value was 26390 ng·h/mL and the Cmax was found to be 1330 ng/mL.
